# From patent US20170303557A1, “PURIFICATION OF POLYPHENOLS” (NESTEC S.A., priority 2014, published 2017)
# Experiment: Model study: degradation of 5-CQA and formation of its ethylester in 75% ethanolic solution (LC/MS-DAD)
# Type: physicochemical
# Settings: 75% ethanol
# Procedure: During the experiment 5-CQA was stored in the presence of ethanol (75% ethanolic solution) by varying the following parameters pH, temperature and time.
# The process was conducted under the following conditions using 5-CQA esterification as the model.
# For each trial 10 mg of 5-CQA were dissolved in 40 mL of a 75% ethanolic solution. • pH studies: The pH was adjusted to pH 1, pH 2.7 and pH 4 with hydrochloric acid (32%) and to pH 12 by using NaOH solution (4 N) and all samples were kept in a lab oven at a temperature of 80° C. for 2 hours. • Temperature studies: CQA solutions were adjusted to pH 1 with hydrochloric acid (32%) and kept for 2 hours either at room temperature, 50° C. or 80° C. in a lab oven. • Time studies: 5-CQA solutions were adjusted to pH 1 and kept at room temperature or 50° C. for 1 h, 2 h, 3 h and 36 h (RT only). • System: The analysis was performed on a LC-DAD-MS system using LCQ Deca mass spectrometer (Thermo Finnigan), with a DAD detector (Thermo Finnigan) and a Rheos HPLC system (Thermo Finnigan). • Sample Preparation: For each parameter an aliquot of the solution was diluted 1:10 and directly used for LC/MS-DAD analysis. • HPLC Method: The separation was performed at ambient temperature on a Zorbax Eclipse C18 column, 5 μm, 150*3 mm (Agilent). A binary gradient of A/B (A: 0.1% formic acid, B: methanol) was applied. • MS parameters: The Mass spectrometer used is the LCQ-Deca operated in FullScan and data dependant MS/MS mode (m/z 100-1000) for compound identification.
compound,measurement,setting,value
"O=C(/C=C/c1ccc(O)c(O)c1)O[C@@H]1C[C@@](O)(C(=O)O)C[C@@H](O)[C@@H]1O [5-CQA, 5-caffeoyl quinic acid]",ester detectable as compared to the native 5-CQA,"pH 1, 50° C., 2 h",Up to 40%
same,ester formed,"pH 1, 50° C., period corresponding to desorption duration of up-scaled protocol (within first 3 h)",30%
same,ester as compared to 5-CQA,"pH 1, 80° C., 2 h",same amounts of the ester as compared to 5-CQA
same,transformation of 5-CQA into its ethylester,"pH 1, 80° C., 2 h",rapid transformation of 5-CQA into its ester
same,5-CQA transformed into its ethylester,"pH 1, RT, 2 h",only a small amount
same,ester formed,"pH 1, room temperature, 3 h",3%
same,ester formed,"pH 1, room temperature, 36 h",14%
same,5-CQA esterification,"pH 2.7, 80° C., 2 h",significantly reduced
same,degradation of 5-CQA,"pH 4, 80° C., 2 h",almost not degraded
same,degradation of 5-CQA,"pH 12, 80° C., 2 h",hydrolysis of 5-CQA yielding caffeic and quinic acid
